Data: US9149523B2, “Compositions and methods for treating cancer and neurodegenerative diseases” (Yeda Research and Development Co. Ltd., priority 2010, dated 2015)

Target: T1, DAPk WT (Homo sapiens, UniProt P53355)
T1 construct: Plasmids encoding N-terminal Flag and hemaglutinin (HA)-tagged human full-length DAPk (Flag-DAPk and HA-DAPk); made in house; host or cells: HEK 293T cells, transient transfection; anti-FLAG M2 immunoprecipitation, elution with FLAG peptide
Assay: In vitro kinase assay (ELISA, hMLC Ser 19 phosphorylation)
Type: biochemical
Details: DAPk WT pre-incubated with GDP versus Gpp(NH)p (non-hydrolysable GTP analog); FIG. 4C
Method: Maxisorp™ multiwell polystyrene plates (Nunc, Langenselbold, Germany) were incubated at 4° C., overnight, with the indicated amounts of hMLC diluted in PBS. Plates were washed with PBST and blocked with 4% BSA (Sigma, City, State) diluted in PBS. The kinase reactions were then performed on the plate. Briefly, the wells were incubated with kinase buffer (50 mM Hepes, pH 7.5, 20 mM MgCl2, 0.1 mg/mL BSA, 50 mM β-glycerol phosphate, 50 μM ATP) containing 2.5 nM of the indicated enzyme, for 10 min. The reactions were stopped by addition of EDTA to final concentration of 25 mM. Plates were washed again with PBST and then incubated with rabbit anti MLC (Ser19) polyclonal antibody (Cell Signaling, Danvers, Mass.) at a 1:250 dilution in PBS. PBST wash was performed again and the plate incubated with HRP-conjugated goat anti rabbit IgG (Jackson ImmunoResearch, West Grove, Pa.). Detection was done with the HRP substrate ABTS. Where indicated the HRP read outs were plot using the Michaelis-Menten equation and the curves fit by the least squares method.
To determine the significance to DAPk's enzymatic activity of the ROC domain in general and of the GTP-binding in particular, in vitro kinase assays were performed. The assays were based on an ELISA format measuring phosphorylation of the DAPk substrate hMLC at Ser 19, using specific anti-phospho Ser19 antibodies. […]

T1 sequence (P53355 whole entry): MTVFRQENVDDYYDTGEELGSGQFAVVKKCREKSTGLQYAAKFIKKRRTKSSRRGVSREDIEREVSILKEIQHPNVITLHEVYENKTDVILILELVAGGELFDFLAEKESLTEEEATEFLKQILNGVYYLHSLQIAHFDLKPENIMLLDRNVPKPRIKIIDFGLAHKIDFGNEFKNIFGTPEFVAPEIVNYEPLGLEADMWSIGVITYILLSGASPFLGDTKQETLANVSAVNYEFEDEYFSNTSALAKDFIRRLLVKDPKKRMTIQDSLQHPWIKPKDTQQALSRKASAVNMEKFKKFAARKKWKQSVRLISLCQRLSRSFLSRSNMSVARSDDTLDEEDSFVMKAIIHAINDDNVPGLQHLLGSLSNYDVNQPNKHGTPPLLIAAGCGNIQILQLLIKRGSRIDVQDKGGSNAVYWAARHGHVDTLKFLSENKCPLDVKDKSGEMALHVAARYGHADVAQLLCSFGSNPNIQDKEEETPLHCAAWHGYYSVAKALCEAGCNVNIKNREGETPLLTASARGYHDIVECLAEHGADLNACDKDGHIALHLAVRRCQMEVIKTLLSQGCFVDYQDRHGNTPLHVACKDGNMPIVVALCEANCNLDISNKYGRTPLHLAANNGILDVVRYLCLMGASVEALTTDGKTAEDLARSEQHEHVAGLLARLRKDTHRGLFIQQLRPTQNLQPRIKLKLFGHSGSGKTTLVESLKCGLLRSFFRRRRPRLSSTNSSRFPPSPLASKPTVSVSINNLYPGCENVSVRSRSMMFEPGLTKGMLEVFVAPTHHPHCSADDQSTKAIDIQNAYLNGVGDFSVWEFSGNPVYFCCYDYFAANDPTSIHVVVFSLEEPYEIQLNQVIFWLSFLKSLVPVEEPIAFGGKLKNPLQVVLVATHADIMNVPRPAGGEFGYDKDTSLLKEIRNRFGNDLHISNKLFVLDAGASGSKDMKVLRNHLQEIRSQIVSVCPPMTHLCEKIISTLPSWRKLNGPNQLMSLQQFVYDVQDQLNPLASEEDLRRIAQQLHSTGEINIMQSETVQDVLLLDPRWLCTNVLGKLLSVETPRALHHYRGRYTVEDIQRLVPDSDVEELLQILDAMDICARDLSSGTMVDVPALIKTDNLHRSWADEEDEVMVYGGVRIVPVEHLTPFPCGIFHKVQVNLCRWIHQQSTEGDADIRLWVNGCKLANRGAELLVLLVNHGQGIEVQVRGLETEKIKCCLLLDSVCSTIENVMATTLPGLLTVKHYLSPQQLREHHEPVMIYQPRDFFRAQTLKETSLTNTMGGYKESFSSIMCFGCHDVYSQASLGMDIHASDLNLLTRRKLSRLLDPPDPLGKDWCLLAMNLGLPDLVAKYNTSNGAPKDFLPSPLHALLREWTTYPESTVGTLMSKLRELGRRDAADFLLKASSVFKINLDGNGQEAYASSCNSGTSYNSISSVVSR

Structure (SMILES): Nc1nc2c(ncn2[C@@H]2O[C@H](COP(=O)(O)OP(=O)(O)O)[C@@H](O)[C@H]2O)c(=O)[nH]1 [GDP]
- DAPk catalytic activity: increased catalytic activity
